Laboratory results as given in patent US4122184A, “Benzimidazole insecticides” (priority 1977, dated 1978).

What was measured:
[1] = Solubility of sodium salt; format: physicochemical
Boll Weevil [2] = assay: Field trial (first summer), topical; format: in vivo, Anthonomus grandis; settings: .078125 μg/μl
Method: (§1) In a variation of the above test, 1 microliter of a test solution containing a predetermined number of micrograms of benzimidazole was applied directly to larvae or adult insects.
(§2) During the previous summer similar field trials were conducted employing the same tests as heretofore but with some additional species of insects not included in the later tests. The results listed below are for tests in which an insect mortality was established by a given application route and at a given concentration in a particular test. The same 0 - 9 scoring system is used as is the designation of compounds by alphabetical symbols.

House Fly = assay: Housefly (Contact) Test; format: in vivo, Musca domestica (Diptera); settings: 50 ppm, 24 h
Method: Rearing cages containing four-day old adult house flies are chilled at 35°-40° F. for about 1 hour. One hundred flies are transferred from the rearing cage to each test cage using a small scoop. The caged flies are kept for 1-2 hours at 70°-80° F. The cages are sprayed in the same manner as described for the milkweed bug with 5 ml. of the test formulation. Two unsprayed cages are held as controls and two cages are sprayed with a 50 ppm DDT formulation as a reference standard. Mortality counts are made 24 hours after spraying. […] The same rating scale is employed as heretofore.

Oriental Cockroach = assay: Oriental Roach Test; format: in vivo, Blatta orientalis (Orthoptera); settings: 24 h
Method: A rearing pan of late instar (3-4 months old) roaches is placed in a cold room for about 1 hour. Ten nymphs are taken from the pan and placed in each cage and the caged insects are kept at 70°-80° F. for 1 hour. The test cages are then sprayed in the manner indicated above in the milkweed bug test using 5 ml. of a formulation containing a specified amount of the insecticide. The test cages are held for 72 hours during which time the cockroaches are neither fed nor watered. Controls consist of 2 unsprayed cages, two cages sprayed with the formulation alone and 2 cages with a formulation containing 1000 ppm of heptachlor. Mortality counts are made 24 hours after spraying by shaking the cages lightly. All cockroaches remaining in the bottom are counted as dead.

[3] = tested on: Southern Corn Rootworm Adults; assay: Field trial, stomach poison test; format: in vivo
Procedure, shortened: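 Insects, five or ten per dish, are fed air-dried leaves that were dipped in or sprayed with the compound at two or three rates. Mortality is rated 0–9 at 24, 48 and 72 h and averaged per concentration.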

Two-spotted Spider Mite = Two-spotted Spider Mite test; format: in vivo, Tetranychus urticae (Acarina); settings: 25 ppm, 48 h
Method: The procedure in this test is the same as that in the previous aphid test, except that about 100 two-spotted spider mites from a stock colony raised on squash plants are transferred to a cut squash cotyledon. The mortality is estimated 48 hours after spraying. The same rating scale is used.

Boll Weevil [4] = assay: Boll Weevil Test; format: in vivo, Anthonomus grandis (Coleoptera); settings: 48 h
Description: The procedure is identical to that employed for the Mexican bean beetle and the Southern armyworm, except that 10 adult boll weevils are placed on cotton leaves that have been dipped into formulations of the test compounds. The same rating scale is used.

Confused Flour Beetle = assay: Field trial (first summer), topical; format: in vivo; settings: .3125 μg/μl
Method: as §1, §2

Picnic Beetle = assay: Field trial (first summer), topical; format: in vivo; settings: .078125 μg/μl
Method: as §1, §2

[5] = tested on: Southern Corn Rootworm Adults; assay: Field trial, contact poison test; format: in vivo
Procedure, shortened: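 Infested plants in water-filled bottles sprayed by atomizer at 10 psi with compound at several concentrations. Mortality read at 24, 48 and 72 hours on a 0–9 scale (0 = 0-10%, 9 = 91-100%), averaged per concentration.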

SMILES: O=[N+]([O-])c1cc(C(F)(F)F)cc2nc(C(F)(F)F)[nH]c12.[Na] [B, 2,6-bis(trifluoromethyl)-4-nitrobenzimidazole, sodium salt]
- solubility in acid ([1]; acid): insoluble in acid
- solubility in water ([1]; water): water soluble
- insect mortality rating (Boll Weevil [2]): 9 (91-100 percent mortality)
- mortality rating (House Fly): 8.5
- mortality rating (Oriental Cockroach; 25 ppm): .5
- mortality rating (Oriental Cockroach; 100 ppm): 3.5
- average mortality rating ([3]; 25 ppm): 4
- average mortality rating ([3]; 50 ppm): 5
- average mortality rating ([3]; 100 ppm): 9 (91-100 percent mortality)
- mortality rating (Two-spotted Spider Mite): 8.5
- mortality rating (Boll Weevil [4]; 25 ppm): 8.5
- mortality rating (Boll Weevil [4]; 250 ppm): 8.5
- insect mortality rating (Confused Flour Beetle): 9 (91-100 percent mortality)
- insect mortality rating (Picnic Beetle): 9 (91-100 percent mortality)
- average mortality rating ([5]; 25 ppm): 0 (0-10 percent)
- average mortality rating ([5]; 50 ppm): 3
- average mortality rating ([5]; 100 ppm): 8
